ChEMBL document CHEMBL3525955, “Glucuronidation of the red clover isoflavone irilone by liver microsomes from different species and human UDP-glucuronosyltransferases” (Drug Metab Dispos, 2011)

Legend:
Type in all cases: ADME
[1] = system: Liver microsome; assay: Drug metabolism in Sprague-Dawley rat liver microsomes assessed as IRI-O-4'-monoglucuronide formation incubated for 5 mins prior to UDPGA addition measured after 90 mins by Eadie-Hoftsee plot analysis; details: 1.5 h
[2] = target: T1, UDP-glucuronosyltransferase 1A9 (Homo sapiens, UniProt O60656); assay: Substrate inhibition of human recombinant UGT1A9 assessed as IRI-O-5-monoglucuronide formation incubated for 5 mins prior to UDPGA addition measured after 90 mins by Eadie-Hoftsee plot analysis
T1 sequence (O60656 whole entry): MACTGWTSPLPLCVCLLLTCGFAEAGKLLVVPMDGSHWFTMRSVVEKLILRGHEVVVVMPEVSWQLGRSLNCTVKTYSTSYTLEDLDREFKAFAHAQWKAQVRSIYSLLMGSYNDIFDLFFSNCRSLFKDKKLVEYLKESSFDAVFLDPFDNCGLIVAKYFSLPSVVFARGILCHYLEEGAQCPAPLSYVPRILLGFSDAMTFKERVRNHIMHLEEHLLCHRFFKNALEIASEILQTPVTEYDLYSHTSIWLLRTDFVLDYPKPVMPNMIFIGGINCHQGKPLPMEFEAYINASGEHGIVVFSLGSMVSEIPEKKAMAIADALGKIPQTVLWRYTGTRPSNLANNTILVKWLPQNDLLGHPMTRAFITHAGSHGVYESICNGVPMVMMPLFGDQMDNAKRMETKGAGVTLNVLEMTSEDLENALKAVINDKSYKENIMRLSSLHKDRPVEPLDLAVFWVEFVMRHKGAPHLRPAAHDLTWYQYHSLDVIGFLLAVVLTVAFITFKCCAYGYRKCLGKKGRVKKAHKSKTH

[3] = target: T2, UDP-glucuronosyltransferase 1A8 (Homo sapiens, UniProt Q9HAW9); assay: Drug metabolism assessed as human recombinant UGT1A8-mediated irilone-O-4'-monoglucuronide formation at 25 uM incubated for 5 mins prior to UDPGA addition measured after 90 mins by HPLC-DAD analysis; details: recombinant enzyme, 1.5 h
T2 sequence (Q9HAW9 whole entry): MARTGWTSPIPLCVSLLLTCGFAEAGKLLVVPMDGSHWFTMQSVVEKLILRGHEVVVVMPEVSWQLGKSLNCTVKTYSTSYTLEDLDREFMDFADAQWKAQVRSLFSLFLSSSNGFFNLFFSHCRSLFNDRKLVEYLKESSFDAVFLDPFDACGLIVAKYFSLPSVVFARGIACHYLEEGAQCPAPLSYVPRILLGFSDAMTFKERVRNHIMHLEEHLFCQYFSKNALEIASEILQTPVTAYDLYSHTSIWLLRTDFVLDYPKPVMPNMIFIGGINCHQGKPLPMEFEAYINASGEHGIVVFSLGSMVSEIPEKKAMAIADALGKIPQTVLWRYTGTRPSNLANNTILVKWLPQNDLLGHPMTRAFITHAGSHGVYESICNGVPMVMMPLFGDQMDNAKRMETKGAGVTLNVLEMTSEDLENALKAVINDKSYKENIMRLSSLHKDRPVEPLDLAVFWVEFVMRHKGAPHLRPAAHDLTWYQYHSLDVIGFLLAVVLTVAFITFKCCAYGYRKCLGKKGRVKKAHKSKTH

[4] = system: Liver microsome; assay: Drug metabolism in Sprague-Dawley rat liver microsomes assessed as IRI-O-5-monoglucuronide formation incubated for 5 mins prior to UDPGA addition measured after 90 mins by Eadie-Hoftsee plot analysis; details: 1.5 h
[5] = target: T1, UDP-glucuronosyltransferase 1A9; assay: Activity of human recombinant UGT1A9 assessed as intrinsic clearance incubated for 5 mins prior to UDPGA addition measured after 90 mins; details: recombinant enzyme, 1.5 h
[6] = target: T3, UDP-glucuronosyltransferase 1A1 (Homo sapiens, UniProt P22309); assay: Drug metabolism assessed as human recombinant UGT1A1-mediated irilone-O-5-monoglucuronide formation at 25 uM incubated for 5 mins prior to UDPGA addition measured after 90 mins by HPLC-DAD analysis; details: recombinant enzyme, 1.5 h
T3 sequence (P22309 whole entry): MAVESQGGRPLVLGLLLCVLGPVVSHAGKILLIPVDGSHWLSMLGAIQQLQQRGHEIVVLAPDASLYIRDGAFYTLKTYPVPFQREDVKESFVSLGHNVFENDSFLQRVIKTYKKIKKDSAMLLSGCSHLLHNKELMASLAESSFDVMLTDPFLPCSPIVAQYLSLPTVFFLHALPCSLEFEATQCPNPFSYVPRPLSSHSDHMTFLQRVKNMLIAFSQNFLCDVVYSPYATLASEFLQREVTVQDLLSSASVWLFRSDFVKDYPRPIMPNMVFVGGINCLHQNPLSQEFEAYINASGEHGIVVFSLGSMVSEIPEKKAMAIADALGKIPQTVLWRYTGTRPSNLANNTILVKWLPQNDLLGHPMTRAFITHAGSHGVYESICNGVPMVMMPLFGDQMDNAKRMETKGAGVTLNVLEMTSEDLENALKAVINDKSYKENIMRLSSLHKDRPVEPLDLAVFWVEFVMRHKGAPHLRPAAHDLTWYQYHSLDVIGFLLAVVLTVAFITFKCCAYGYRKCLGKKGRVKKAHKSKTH

[7] = target: T2, UDP-glucuronosyltransferase 1A8; assay: Substrate inhibition of human recombinant UGT1A8 assessed as IRI-O-4'-monoglucuronide formation incubated for 5 mins prior to UDPGA addition measured after 90 mins by Eadie-Hoftsee plot analysis
[8] = target: T3, UDP-glucuronosyltransferase 1A1; assay: Substrate inhibition of human recombinant UGT1A1 assessed as IRI-O-4'-monoglucuronide formation incubated for 5 mins prior to UDPGA addition measured after 90 mins by Eadie-Hoftsee plot analysis
[9] = target: Liver microsome; assay: Drug metabolism in human liver microsomes assessed as substrate inhibition of IRI-O-5-monoglucuronide formation incubated for 5 mins prior to UDPGA addition measured after 90 mins by Eadie-Hoftsee plot analysis
[10] = target: T3, UDP-glucuronosyltransferase 1A1; assay: Substrate inhibition of human recombinant UGT1A1 assessed as IRI-O-5-monoglucuronide formation incubated for 5 mins prior to UDPGA addition measured after 90 mins by Eadie-Hoftsee plot analysis
[11] = target: T4, UDP-glucuronosyltransferase 1A7 (Homo sapiens, UniProt Q9HAW7); assay: Drug metabolism assessed as human recombinant UGT1A7-mediated irilone-O-4'-monoglucuronide formation at 25 uM incubated for 5 mins prior to UDPGA addition measured after 90 mins by HPLC-DAD analysis; details: recombinant enzyme, 1.5 h
T4 sequence (Q9HAW7 whole entry): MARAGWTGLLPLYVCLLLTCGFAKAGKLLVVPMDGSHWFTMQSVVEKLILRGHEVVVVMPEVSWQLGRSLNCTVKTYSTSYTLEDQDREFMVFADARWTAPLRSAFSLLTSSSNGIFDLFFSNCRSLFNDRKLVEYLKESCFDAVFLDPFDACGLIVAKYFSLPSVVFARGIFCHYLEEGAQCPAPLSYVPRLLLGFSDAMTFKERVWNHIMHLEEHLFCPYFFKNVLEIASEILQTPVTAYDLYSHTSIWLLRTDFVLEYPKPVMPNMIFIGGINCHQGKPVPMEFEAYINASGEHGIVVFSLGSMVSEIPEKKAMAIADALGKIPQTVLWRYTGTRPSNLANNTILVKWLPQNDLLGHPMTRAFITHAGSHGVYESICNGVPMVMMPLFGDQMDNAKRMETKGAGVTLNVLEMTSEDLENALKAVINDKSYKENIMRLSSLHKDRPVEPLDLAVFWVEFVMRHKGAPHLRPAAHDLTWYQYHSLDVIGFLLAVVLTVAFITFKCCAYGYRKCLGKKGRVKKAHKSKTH

Km [1]: 124 µM
Vmax [1]: 1.33 nmol/mg/min
Ki [2]: 534 µM
Drug metabolism [3]: metabolite_detected
Km [4]: 34 µM
Vmax [4]: 1.37 nmol/mg/min
CL [5]: 53300 µL/min/mg
Drug metabolism [6]: metabolite_detected
Ki [7]: 23.4 µM
Ki [8]: 14.1 µM
Ki [9]: 96.9 µM
Ki [10]: 8.5 µM
Drug metabolism [11]: metabolite_detected
SMILES: O=c1c(-c2ccc(O)cc2)coc2cc3c(c(O)c12)OCO3
